Where two headings read alike, the source gives them in different places.
Key:
[1] = test system: prostate tissue of male Wistar rats
Procedure: 18 male Wistar rats at the age of 12-weeks-old were divided into 3 groups (test group, comparative group, and negative control group; 6 rats per group). The right inguinal region of each test group rat was incised under ether anesthesia to expose the prostate. Beneath the prostatic capsule of the right lateral lobe was injected 100 μl of sterilized 0.4 N hydrochloric acid physiological saline (a solution prepared by diluting hydrochloric acid with physiological saline to a concentration of 0.4 N, the same applies hereinbelow). The right inguinal region of each comparative group rat was incised in the same manner under ether anesthesia, and 100 μl of 0.4 N hydrochloric acid physiological saline was injected into the right vas deferens thus exposed. The peritoneum and the skin of the rats were sutured with a suture thread. To prevent operational infection, a kanamycin-containing aqueous solution was sprayed onto the site of the incision, and a physiological saline solution containing cefazolin sodium was injected into the femoral muscle in an amount of 7 mg/kg body weight. The control group refers to untreated rats (normal rats) subjected to neither an incisional operation nor hydrochloric acid injection.
The prostate, bladder and urethra were sampled from the rats of respective groups prepared in 1-1) above (test group, comparative group, and control group) to prepare tissue specimens thereof for the evaluation of change in tissue.
Specifically, the rats of the test group and the comparative group were euthanized by exsanguination under ether anesthesia 6 hours (2 rats per group), 4 days (2 rats per group), or 8 days (2 rats per group) after hydrochloric acid injection. The prostate, bladder and urethral tissues were taken out as a lump, and the tissues were fixed with 4% paraformaldehyde. The rats of the control group were subjected to the same treatment.
The frozen blocks were sliced in a cryostat to a thickness of 5 to 6 μm to prepare slide preparations of the tissue sections. The slide preparations were stained with hematoxylin-eosin (H.E), and the appearance of the tissues was observed under a microscope.
In the figures, sample code N refers to the tissue samples obtained from the control group (nonhydrochloric acid-injected rats), and sample code P refers to the tissue samples obtained from the test group (rats injected with hydrochloric acid beneath the prostatic capsules).
In the figures, sample code Y refers to tissue samples obtained from the comparative group (rats injected with hydrochloric acid into the vas deferens).

[2] = test system: bladder function of male Wistar rats; conditions: 8th day of rearing
[3] = 100 μl 0.4 N beneath prostatic capsule
[4] = 100 μl 0.4 N into the vas deferens, 6 hours after injection
[5] = 0.1, 0.2 and 0.4 N beneath prostatic capsule
[6] = 100 μl 0.2 N beneath prostatic capsule

In the case of Cl [hydrochloric acid], the “urethral and bladder tissue damage extending from the prostate” value [1, 3] is reported as “no evidence of tissue damage”, the “localized bleeding and nerve cell tigrolysis in the stroma of the prostate dorsolateral lobes” value ([1]; 100 μl 0.4 N beneath prostatic capsule, 6 hours after injection) is reported as “slight (+) to moderate (++)” and the “hyperplasia and fibrosis of the fibroblast, and inflammatory cellular infiltration in the stroma of the prostate dorsolateral lobes” value ([1]; 100 μl 0.4 N beneath prostatic capsule, 4 days after injection) is reported as “moderate (++) to severe (+++)”. The prostate tissue damage ([1]; 100 μl 0.4 N beneath prostatic capsule, 8 days after injection) was “still observable”, the “loss of glandular epithelial cells, peeling of epithelium, degeneration/necrosis, and presence of erythrocytes at the glandular cavities of the prostate dorsolateral lobes” value ([1]; 100 μl 0.4 N injected beneath prostatic capsule of right lateral lobe, 6 hours after injection) was “slight (+) to moderate (++) to severe (+++)” and the “epithalaxia in the glandular cavities of the prostate dorsolateral lobes” value ([1]; 100 μl 0.4 N injected into the vas deferens (comparative group), 6 hours after injection) was “severe (+++)”. For the same compound, the “bleeding in the stromata of the glandular tissues of the ampulla ductus deferentis” value [1, 4] was “severe (+++)”, the “epithalaxia, degeneration/necrosis and bleeding in the glandular cavities of the ampulla ductus deferentis” value [1, 4] was “severe (+++)” and the “localized bleeding in the stroma of the prostate dorsolateral lobes” value [1, 4] was “severe (+++)”. For the same compound, the prostate tissue damage ([1]; 100 μl 0.4 N into the vas deferens, 4 days after injection) was “did not exhibit such prostate tissue damage”, the “damage at the glandular tissues of the ampulla ductus deferentis” value ([1]; 100 μl 0.4 N into the vas deferens, at least 4 days after injection) was “did not exhibit such damage” and the “development of prostatitis, pathohistological point of view” value ([1]; injected into the vas deferens of rats (animal model (5))) was “only to a very slight extent”. For the same compound, the “correlation between concentration and change in the weight of the prostate” value [2, 5] was “no evidence of correlation”, the “ratio of bladder weight to body weight compared with the control group” value [2, 5] was “comparable or significantly higher” and the “ratio of prostate ventral lobe weight to body weight compared with the control group” value [2, 5] was “comparable or significantly higher”. The “weight of the bladder in relation to concentration injected” value [2, 5] was “increased in accordance with the concentration”, the “volume of residual urine compared with the control group” value ([2]; 100 μl 0.1 N beneath prostatic capsule) was “no residual urine” and the “urination interval compared with the control group” value [2, 6] was “significantly shorter”. For the same compound, the “volume of residual urine compared with the control group” value [2, 6] was “significantly higher”, the “volume of urine per urination compared with the control group” value [2, 6] was “smaller” and the “urination interval compared with the control group” value [2, 3] was “significantly shorter”. For the same compound, the “volume of urine per urination compared with the control group” value [2, 3] was “smaller”.

Reference: patent US20060107336A1, “Nonbacterial prostatitis model animal” (priority 2002, published 2006)
